From US6673899B2, “Sodium ion-driven chloride /bi-carbonate exchanger” (JCR Pharmaceuticals Co., Ltd., priority 2000, dated 2004)

Columns and labels:
[1] = target: T1, NCBE (Na+-driven Cl-/HCO3- exchanger) (Mus musculus, UniProt Q5DTL9); assay: 22Na+ uptake in NCBE cRNA-injected Xenopus laevis oocytes; format: cell-based
T1 construct: expressed in transfected cells; host or cells: Xenopus laevis oocytes injected with NCBE cRNA (pSD5, SP6 transcript)
T1 sequence (Q5DTL9 1-1088 isoform Q5DTL9-2): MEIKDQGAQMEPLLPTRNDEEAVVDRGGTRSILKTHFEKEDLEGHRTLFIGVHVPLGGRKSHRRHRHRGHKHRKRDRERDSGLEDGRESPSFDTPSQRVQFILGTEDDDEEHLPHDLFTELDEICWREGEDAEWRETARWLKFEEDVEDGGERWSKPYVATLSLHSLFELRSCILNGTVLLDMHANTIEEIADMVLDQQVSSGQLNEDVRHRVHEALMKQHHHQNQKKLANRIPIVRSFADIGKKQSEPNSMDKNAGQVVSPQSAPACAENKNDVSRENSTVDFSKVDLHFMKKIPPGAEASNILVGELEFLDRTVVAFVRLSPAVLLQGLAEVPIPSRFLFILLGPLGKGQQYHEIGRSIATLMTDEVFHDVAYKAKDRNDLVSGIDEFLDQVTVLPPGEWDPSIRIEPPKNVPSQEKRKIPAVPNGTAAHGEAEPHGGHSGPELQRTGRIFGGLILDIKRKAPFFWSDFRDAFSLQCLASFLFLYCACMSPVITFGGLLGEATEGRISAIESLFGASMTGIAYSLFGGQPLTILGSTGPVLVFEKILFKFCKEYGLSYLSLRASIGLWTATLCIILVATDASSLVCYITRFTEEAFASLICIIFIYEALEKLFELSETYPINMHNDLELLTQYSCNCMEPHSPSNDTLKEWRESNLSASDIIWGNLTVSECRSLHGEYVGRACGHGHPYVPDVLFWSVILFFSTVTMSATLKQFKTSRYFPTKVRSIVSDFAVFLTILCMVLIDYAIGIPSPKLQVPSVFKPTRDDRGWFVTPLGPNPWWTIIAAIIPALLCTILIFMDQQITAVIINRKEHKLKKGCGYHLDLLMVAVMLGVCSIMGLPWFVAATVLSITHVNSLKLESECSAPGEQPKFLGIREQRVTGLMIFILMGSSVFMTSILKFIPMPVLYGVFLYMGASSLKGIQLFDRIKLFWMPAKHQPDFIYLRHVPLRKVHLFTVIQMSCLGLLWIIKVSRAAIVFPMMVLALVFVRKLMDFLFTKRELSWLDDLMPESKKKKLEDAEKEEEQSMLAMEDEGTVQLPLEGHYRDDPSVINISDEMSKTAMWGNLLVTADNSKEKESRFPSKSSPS
Description: (§1) The coding sequence of NCBE in pSD5 was linearized by digestion with FspI and in vitro transcribed with SP6 RNA polymerase as previously described (Wang, C -Z. et al., Biochem. Biophys. Res. Commun., 220:196-202(1996)). Defolliculated oocytes were injected with NCBE cRNA (50 nl, 0.5 μg/μl) or water and incubated in 1×MBS medium (88 mM NaCl, 1 mM KCl, 0.8 mM MgCl2, 0.4 mM CaCl2, 0.3 mM Ca(NO3)2, 2.4 mM NaHCO3 and 7.5 mM Tris, pH 7.4) for 3-5 days at 18° C. before the studies. The oocytes were preincubated for one hr at 18° C. in the standard solution (100 mM NaCl, 2 mM KCl, 1 mM MgCl2, 1 mM CaCl2, and 8 mM NaHCO3, pH 7.4).
(§2) For studies of dependency on extracellular Na^+concentration, the oocytes were then incubated in 1.4 ml of either 1, 10, 30 or 100 mM Na^+solution bubbled with 1.5% CO2, pH 7.4 with 0.074 MBq of ^22Na+ (NEN™ Life Science Products, Boston, Mass.). In each solution, the Na^+in the standard solution was substituted with an equal molar amount of choline. A ten μl aliquot was removed from the incubation solution for later determination of ^22Na^+-specific activity. […]
(§3) The present inventors also examined the effect of DIDS, an inhibitor of anion-transporter, on ^22Na^+uptake. Expression was assessed in the absence or presence of 0.3 mM DIDS. […]

water-injected oocytes = assay: 22Na+ uptake in water-injected Xenopus laevis oocytes (control); format: cell-based; conditions: in the presence of 300 μM DIDS, mean ± SE, n=19, 1.6±0.3 in the absence of DIDS
Description: as §1, §2, §3

- effect on 22Na+ uptake by NCBE ([1]; 300 μM DIDS, NCBE cRNA-injected oocytes (FIG. 5)): partially inhibit
- 22Na+ uptake ([1]; NCBE cRNA-injected oocytes, in the presence of 300 μM DIDS, 15 min, standard solution, mean ± SE, n=14, 31.4±2.1 in the absence of DIDS): 6.0±0.7 nmol/oocyte/hour
SMILES: O=S(=O)(O)c1cc(N=C=S)ccc1C=Cc1ccc(N=C=S)cc1S(=O)(=O)O [DIDS, 4,4′-diisothiocyanostilbene-2,2′-disulfonic acid]
- 22Na+ uptake (water-injected oocytes): 2.1±0.4 nmol/oocytes/hour
